The results in this text go back to US6555124B1, “Use of (meth)acrylic acid copolymers to increase the permeability of mucous membranes” (BASF Aktiengesellschaft, priority 1996, dated 2003).

The nature of one data set: in vitro. The settings on record: human, Caco-2, pH 6. The source says:
(§1) This cell line forms on polycarbonate membranes a tissue assemblage which is very similar in appearance and protein composition to small intestinal […]. In the Transwell system (from Costar, Bodenheim, Germany), this artificial endothelial tissue separates two chambers, which are filled with medium, into the apical and the basolateral compartment. This design allows the permeation of a substance through the caco-2 tissue layer to be determined. […] An improvement in permeability is indicated by the reversible opening of the tight junctions.
(§2) Caco-2 cells were cultivated in DMEM (Dulbeccos Modified Eagle's Medium, from Gibco BRL, Eggenstein, Germany) with 10% FCS (fetal calf serum), 1% L-glutamine and 4.5 mg/ml glucose at 37° C. with 5% CO2 and 95% relative humidity. After trypsinization, the cells were spread at a density of 3×10^5 cells/cm^2 on transwell polycarbonate filters. Cells between the 30th and 50th passage were used to form monolayers. The monolayers were employed in the experiment 15-21 days (medium change every three days) after spreading of the cells.
(§3) Before the experiment, the caco-2 cell tissue was washed in the Transwell filter inserts with PBS (phosphate buffer saline). Then the apical compartment was filled with EBSS (Earl's buffered salt solution, pH 6) and the basolateral compartment was filled with DMEM. After addition of the polymer to be tested, which had been neutralized to pH 7, [Kollicoat® MAE 30D (ethyl acrylate/methacrylic acid 1:1, BASF), Eudragit® L100 (methacrylic acid/methyl methacrylate 1:1, Röhm), Eudragit® S100 (methacrylic acid/methyl methacrylate 1:2, Röhm)] in a concentration of 0.5-3% by weight and of the tracer substance into the apical compartment, samples were taken after 24 hours, and the permeation rate of the tracer substance was determined.
(§4) The experiments were analyzed by fluorescence spectrophotometry (Spex Fluorolog 1680: excitation wavelength: 488 nm, emission wavelength: 513 nm), and in the case of C22H32N6O4 by HPLC (column material: Vidac C-18; mobile phase: water/acetonitrile/0.1% trifluoroacetic acid; detection: 240 nm), the experimental results are compiled in Table 1. Measurements which were not done have been indicated by “−”.

In another data set the test system is caco-2 cell tissue. The data set is described as follows: in vitro.
From the text: as §1, §2, §3, §4

Molecules are shown by their SMILES.

One may read the Papp A→B as the apparent permeability from the apical to the basolateral side of a cell layer. Lower therefore signals poor permeation. In “in vitro”, `N=C(N)c1ccc(CNC(=O)[C@@H]2CCCN2C(=O)[C@H](NCC(=O)O)C2CCCCC2)cn1` [C22H32N6O4, HOOC—CH2—(D)-Cha-Pro-NH-3-(6-Am)-Pico] displayed a Papp A→B at 24 h of 0.56 ×10⁻⁶ cm/s. For the same compound, in the data set with caco-2 cell tissue (human, Caco-2, 24 h, pH 6), the Permeation rate is recorded as 56 (cm/sec) · 10^−8.

For the compound `O=C(CCCCCNC(=O)CCCC[C@@H]1SC[C@@H]2NC(=O)N[C@@H]21)NCCCCCNC(=S)Nc1ccc2c(c1)C(=O)OC21c2ccc(O)cc2Oc2cc(O)ccc21` [Fluorescein-biotin, (biotin-amidocaproylamido)-(pentylthioureidyl)-fluorescein], the Permeation rate with caco-2 cell tissue (Control (no polymer), caco-2 monolayer, apical EBSS pH 6, samples after 24 hours) was 2.3 (cm/sec) · 10^−8; in the data set on caco-2 cell tissue (with Eudragit L 100 2.0% by weight (neutralized to pH 7) apical, 24 hours), 4.8 (cm/sec) · 10^−8; in the data set with caco-2 cell tissue (with Eudragit S 100 2.0% by weight (neutralized to pH 7) apical, 24 hours), 7.1 (cm/sec) · 10^−8; in the data set on caco-2 cell tissue (with Kollicoat MAE 30 D 0.5% by weight (neutralized to pH 7) apical, 24 hours), 2.3 (cm/sec) · 10^−8; in the data set with caco-2 cell tissue (with Kollicoat MAE 30 D 1.0% by weight (neutralized to pH 7) apical, 24 hours), 5.8 (cm/sec) · 10^−8; in the data set with caco-2 cell tissue (with Kollicoat MAE 30 D 1.5% by weight (neutralized to pH 7) apical, 24 hours) it was 20 (cm/sec) · 10^−8.
